Earlier results, collected in paper PMC6941357, “An in vitro toolbox to accelerate anti-malarial drug discovery and development” (Malaria Journal, 2020).
“And” between values parts separate entries of the source, which are not always exact repeats. Equal values may be shown once. Read-outs that look alike come from different tables or passages of the source. Marks after values point to notes of the source that are not given here.

How the values were obtained:
[1] = biological target: CYP3A4 (Homo sapiens, UniProt P08684); parameters: from tissue; host or cells: human liver microsomes; settings: human liver microsomes, cited from earlier work
CYP3A4, sequence (P08684 whole entry): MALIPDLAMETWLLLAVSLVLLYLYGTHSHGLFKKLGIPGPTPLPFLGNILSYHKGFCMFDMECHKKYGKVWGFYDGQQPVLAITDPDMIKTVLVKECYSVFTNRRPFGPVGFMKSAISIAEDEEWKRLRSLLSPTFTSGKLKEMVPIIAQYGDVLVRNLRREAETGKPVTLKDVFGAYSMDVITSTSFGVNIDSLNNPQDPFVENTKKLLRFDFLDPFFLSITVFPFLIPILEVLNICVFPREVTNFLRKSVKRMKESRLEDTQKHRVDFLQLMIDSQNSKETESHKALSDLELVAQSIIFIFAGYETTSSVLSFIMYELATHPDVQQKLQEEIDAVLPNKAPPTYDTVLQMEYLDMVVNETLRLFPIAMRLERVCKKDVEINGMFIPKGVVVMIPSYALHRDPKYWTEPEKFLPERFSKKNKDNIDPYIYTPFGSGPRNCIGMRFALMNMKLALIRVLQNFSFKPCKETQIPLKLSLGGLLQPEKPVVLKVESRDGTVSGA

[2] = system: human liver microsomes; settings: human liver microsomes, cited from earlier work
[3] = biological target: T1, CYP1A2 (Homo sapiens, UniProt P05177); parameters: from tissue; host or cells: human liver microsomes; settings: human liver microsomes, cited from earlier work; for CYP1A2 % inhibition at max conc: nmi = no measurable inhibition
T1 sequence (P05177 1-516): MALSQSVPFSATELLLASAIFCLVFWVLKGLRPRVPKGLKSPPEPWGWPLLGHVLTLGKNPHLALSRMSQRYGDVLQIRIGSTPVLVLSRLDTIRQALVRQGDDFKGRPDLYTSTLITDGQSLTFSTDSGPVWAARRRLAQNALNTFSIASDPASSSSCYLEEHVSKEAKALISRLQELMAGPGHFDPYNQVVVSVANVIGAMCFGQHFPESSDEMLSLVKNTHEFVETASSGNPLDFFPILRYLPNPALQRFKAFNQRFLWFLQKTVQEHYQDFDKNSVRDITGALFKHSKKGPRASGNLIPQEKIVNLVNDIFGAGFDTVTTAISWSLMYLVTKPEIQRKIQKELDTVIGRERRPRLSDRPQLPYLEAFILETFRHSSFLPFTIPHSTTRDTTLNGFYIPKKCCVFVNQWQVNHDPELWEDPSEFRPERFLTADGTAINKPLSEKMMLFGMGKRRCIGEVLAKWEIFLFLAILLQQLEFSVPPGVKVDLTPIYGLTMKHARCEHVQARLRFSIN

[4] = cited from earlier work; for Solubility FaSSIF-V2 (5–6 h) / Solubility FaSSGF (1 h) / Solubility FeSSIF-V2 (5–6 h): ref 77 (M5717), 78 (DSM421), 79 (DSM265)
[5] = biological target: CYP2D6 (Homo sapiens, UniProt P10635); parameters: from tissue; host or cells: human liver microsomes; settings: human liver microsomes, cited from earlier work
CYP2D6, sequence (P10635 whole entry): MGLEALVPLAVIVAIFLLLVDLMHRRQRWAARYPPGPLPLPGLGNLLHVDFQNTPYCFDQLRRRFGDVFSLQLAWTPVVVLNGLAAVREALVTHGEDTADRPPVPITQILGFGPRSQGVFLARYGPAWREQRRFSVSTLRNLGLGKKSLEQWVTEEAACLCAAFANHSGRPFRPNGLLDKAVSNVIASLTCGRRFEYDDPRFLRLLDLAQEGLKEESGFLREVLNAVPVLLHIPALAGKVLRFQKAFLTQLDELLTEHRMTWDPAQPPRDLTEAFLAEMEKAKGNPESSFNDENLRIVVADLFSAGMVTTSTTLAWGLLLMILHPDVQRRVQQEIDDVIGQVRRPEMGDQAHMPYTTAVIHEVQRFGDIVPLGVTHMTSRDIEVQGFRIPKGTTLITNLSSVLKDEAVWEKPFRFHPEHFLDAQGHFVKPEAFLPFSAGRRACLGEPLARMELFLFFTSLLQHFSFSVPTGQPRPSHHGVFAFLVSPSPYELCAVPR

[6] = biological target: CYP2C9 (Homo sapiens, UniProt P11712); parameters: from tissue; host or cells: human liver microsomes; settings: human liver microsomes, cited from earlier work
CYP2C9, sequence (P11712 whole entry): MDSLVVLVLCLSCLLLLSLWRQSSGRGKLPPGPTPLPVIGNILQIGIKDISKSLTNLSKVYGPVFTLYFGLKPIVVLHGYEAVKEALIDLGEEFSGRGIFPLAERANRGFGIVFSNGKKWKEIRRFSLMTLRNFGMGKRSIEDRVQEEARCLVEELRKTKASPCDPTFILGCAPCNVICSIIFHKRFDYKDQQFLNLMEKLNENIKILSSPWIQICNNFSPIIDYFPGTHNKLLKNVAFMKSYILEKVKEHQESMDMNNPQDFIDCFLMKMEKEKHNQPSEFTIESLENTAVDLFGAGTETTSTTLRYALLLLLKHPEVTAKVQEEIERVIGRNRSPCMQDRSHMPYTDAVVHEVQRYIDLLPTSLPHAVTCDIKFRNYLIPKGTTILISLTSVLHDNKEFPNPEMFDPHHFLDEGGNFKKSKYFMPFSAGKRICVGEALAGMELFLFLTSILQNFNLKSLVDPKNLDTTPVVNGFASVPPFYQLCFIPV

[7] = biological target: CYP2C19 (Homo sapiens, UniProt P33261); parameters: from tissue; host or cells: human liver microsomes; settings: human liver microsomes, cited from earlier work
CYP2C19, sequence (P33261 whole entry): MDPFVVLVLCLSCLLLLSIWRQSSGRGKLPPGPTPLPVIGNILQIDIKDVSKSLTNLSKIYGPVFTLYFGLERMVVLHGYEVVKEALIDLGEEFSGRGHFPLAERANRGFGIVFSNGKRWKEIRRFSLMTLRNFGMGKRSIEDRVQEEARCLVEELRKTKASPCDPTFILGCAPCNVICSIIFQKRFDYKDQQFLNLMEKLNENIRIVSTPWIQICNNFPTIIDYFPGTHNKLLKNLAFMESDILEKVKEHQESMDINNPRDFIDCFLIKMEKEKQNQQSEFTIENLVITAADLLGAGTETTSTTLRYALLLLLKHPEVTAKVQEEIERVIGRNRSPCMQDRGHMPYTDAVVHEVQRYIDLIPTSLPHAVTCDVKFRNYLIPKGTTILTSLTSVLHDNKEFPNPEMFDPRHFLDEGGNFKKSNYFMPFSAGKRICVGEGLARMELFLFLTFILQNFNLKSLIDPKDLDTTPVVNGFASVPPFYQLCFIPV

[8] = biological target: T2, Albumax medium (lipid rich bovine serum albumin) (Bos taurus, UniProt P02769); parameters: method as in PMID 26180101; settings: cited from earlier work
T2 construct: purchased Gibco, Thermo Fisher Scientific
T2 sequence (P02769 25-607): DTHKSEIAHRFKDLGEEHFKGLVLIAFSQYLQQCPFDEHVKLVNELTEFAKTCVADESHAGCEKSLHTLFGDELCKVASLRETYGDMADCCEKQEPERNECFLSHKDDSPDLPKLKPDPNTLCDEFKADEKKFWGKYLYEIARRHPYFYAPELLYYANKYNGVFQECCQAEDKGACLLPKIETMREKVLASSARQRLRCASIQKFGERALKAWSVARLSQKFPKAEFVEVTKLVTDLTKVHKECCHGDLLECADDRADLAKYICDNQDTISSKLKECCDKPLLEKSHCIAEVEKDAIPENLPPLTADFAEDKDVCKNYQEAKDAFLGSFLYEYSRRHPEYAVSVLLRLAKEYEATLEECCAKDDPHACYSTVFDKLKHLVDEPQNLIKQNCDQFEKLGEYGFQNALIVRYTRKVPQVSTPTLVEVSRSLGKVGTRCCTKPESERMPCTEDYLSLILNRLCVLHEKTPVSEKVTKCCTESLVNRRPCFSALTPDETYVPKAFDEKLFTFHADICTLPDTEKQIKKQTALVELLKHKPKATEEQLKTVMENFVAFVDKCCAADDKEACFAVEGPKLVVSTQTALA

[9] = system: human liver microsomes; settings: ref 79 (DSM265), 78 (DSM421); cited from earlier work
[10] = parameters: method as in earlier work; settings: octanol/pH 7.4 buffer; ref 77 (M5717), 78 (DSM421); cited from earlier work
[11] = human, cited from earlier work
[12] = CYP3A4 (test), read-out: CYP3A4 (test) IC50
[13] = apparent oral volume of distribution

Q: Which results are given for Cc1cc(Nc2ccc(S(F)(F)(F)(F)F)cc2)n2nc(C(C)(F)F)nc2n1 [DSM265]?
A: CYP3A4 (test) % inhibition at max conc ([1]; CYP3A4 (test)): 34%; IC50 [1, 12]: > 20 µM; HLM CLint ([2]; < 15% loss over 60 min): < 7^b,e µL/min/mg; IC50 [3]: > 20 µM; CYP1A2 % inhibition at max conc [3]: nmi; Solubility FaSSIF-V2 (5–6 h) [4]: 5.12 µg/mL and 12.3 µM; IC50 [5]: 7.1 µM; Ki [5]: 4.4 µM; CYP2C9 % inhibition at max conc [6]: 25%; IC50 [6]: > 20 µM; CYP2C19 % inhibition at max conc [7]: 19%; IC50 [7]: > 20 µM; Fraction unbound, Albumax [8]: 0.18 ± 0.0050^f; Fraction unbound, HLM [9]: 0.28 ± 0.0070^f

Q: What does the source list for Cc1cc(Nc2ccc(C(F)(F)F)nc2)n2nc(C(C)(F)F)nc2n1 [DSM421]?
A: CYP3A4 (test) % inhibition at max conc ([1]; CYP3A4 (test), nmi = no measurable inhibition): nmi; IC50 [1, 12]: > 20 µM; IC50 [3]: > 20 µM; CYP1A2 % inhibition at max conc [3]: nmi; Solubility FaSSGF (1 h) [4]: 116 µg/mL and 324 µM; Solubility FaSSIF-V2 (5–6 h) [4]: 92.7 µg/mL and 259 µM; Solubility FeSSIF-V2 (5–6 h) [4]: 119 µg/mL and 332 µM; CYP2D6 % inhibition at max conc [5]: 33%; IC50 [5]: > 20 µM; CYP2C9 % inhibition at max conc [6]: 16%; IC50 [6]: > 20 µM; IC50 [7]: > 20 µM; CYP2C19 % inhibition at max conc ([7]; nmi = no measurable inhibition): nmi; Fraction unbound, HLM [9]: 0.77 ± 0.065^f; Measured Log D7.4 [10]: 2.36 ^g

Q: Which half-life ([11]; in vivo, ref Table 10) does the source give for C[C@H]1[C@@H](O)O[C@@H]2O[C@@]3(C)CC[C@H]4[C@H](C)CC[C@@H]1[C@@]24OO3 [Dihydroartemisinin] here?
A: approximately 1 h

Q: What about the CL/F [11] of the same molecule?
A: 272 L/h

Q: What about the Food effect [11] of the same molecule?
A: no

Q: What about the V/F [11] of the same molecule?
A: 385 L

Q: With O=C(NCCN1CCCC1)c1cc(-c2ccc(CN3CCOCC3)cc2)nc2ccc(F)cc12 [M5717] as the molecule, how does the “Solubility PBS7.4 (5–6 h)” value [4] read?
A: > 3000 µg/mL and > 6490 µM

Q: What about the “Solubility FaSSGF (1 h)” value [4] of the same molecule?
A: > 3000 µg/mL and > 6490 µM

Q: What about the “Solubility FaSSIF-V2 (5–6 h)” value [4] of the same molecule?
A: > 3000 µg/mL and > 6490 µM

Q: And the “Solubility FeSSIF-V2 (5–6 h)” value [4]?
A: > 3000 µg/mL and > 6486 µM

Q: What about the “Measured Log D7.4” value [10] of the same molecule?
A: 2.50 ^g

Q: With CC(C)(N)CNC(=O)C[C@H]1CC[C@]2(CC1)OO[C@]1(O2)C2CC3CC(C2)CC1C3 [OZ277, Arterolane] as the molecule, how does the half-life ([11]; in vivo, ref Table 10) read?
A: ~3 h

Q: What about the CL/F [11] of the same molecule?
A: 184 L/h

Q: What about the Food effect [11] of the same molecule?
A: no

Q: What about the V/F [11] of the same molecule?
A: 929 L

Q: What about the half-life [11] of the same molecule?
A: 3 h

Q: What does the source list for COc1cc(NC(C)CCCN)c2ncccc2c1 (stereo not drawn) [Primaquine]?
A: half-life ([11]; in vivo, ref Table 10): ~ 7 h; CL/F ([11]; apparent oral clearance): 28 L/h; V/F [11, 13]: 277 L; Food effect [11]: no; half-life [11]: 7 h

Q: What does the source list for CS(=O)(=O)O.FC1CCN(CCOc2ccc(C3CCC4(CC3)OOC3(OO4)C4CC5CC(C4)CC3C5)cc2)CC1 (stereo not drawn) [TDD-E209]?
A: CYP3A4 (midaz) % inhibition at max conc ([1]; CYP3A4 (midaz)): 33%; IC50 ([1]; CYP3A4 (midaz), read-out: CYP3A4 (midaz) IC50): > 20 µM; CYP3A4 (test) % inhibition at max conc ([1]; CYP3A4 (test)): 43%; IC50 [1, 12]: > 20 µM; HLM CLint [2]: 25.5^e µL/min/mg; IC50 [3]: > 20 µM; CYP1A2 % inhibition at max conc [3]: nmi; IC50 [5]: > 20 µM; CYP2D6 % inhibition at max conc ([5]; nmi = no measurable inhibition): nmi; IC50 [6]: > 20 µM; CYP2C9 % inhibition at max conc ([6]; nmi = no measurable inhibition): nmi; IC50 [7]: > 20 µM; CYP2C19 % inhibition at max conc ([7]; nmi = no measurable inhibition): nmi

Q: Which results are given for COc1cc(C)c2c(Oc3cccc(C(F)(F)F)c3)c(OC)cc(NC(C)CCCN)c2n1 (stereo not drawn) [Tafenoquine]?
A: CL/F ([11]; apparent oral clearance): 3.0 L/h; V/F [11, 13]: 1600 L; Food effect [11]: yes; half-life [11]: 360 h; half-life ([11]; ref Table 10): ~ 15 days
